Tests used:
[1] = system: TGF-β-stimulated SMAD3 phosphorylation in BEAS-2B cells; experiment: Cellular ALK5 potency assay, inhibition of TGF-β stimulated pSMAD3 formation in BEAS-2B cells; assay type: cell-based; settings: Homo sapiens, pSMAD3, TGF-β 10 ng/mL, read-out: BEAS2B pIC50 (converted)
In short: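 Read-out is AlphaLISA detection of phospho-SMAD3 in lysates of BEAS-2B human lung epithelial cells. Cells are exposed to compound for 1 hour, then to 10 ng/mL TGF-β (final) for 30 minutes. Values are pIC50 from concentration–response curves.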

[2] = biological target: T1, recombinant human ALK5 (TGF-βR1) protein (Homo sapiens, UniProt P36897); experiment: Biochemical ALK5 (TGF-βR1) assay to measure pKi (LANCE Ultra ULight kinase assay); settings: apparent pKi, converted from pIC50 by Cheng-Prusoff
T1 construct: purchased Life Technologies PR9075A
T1 sequence (P36897 34-503): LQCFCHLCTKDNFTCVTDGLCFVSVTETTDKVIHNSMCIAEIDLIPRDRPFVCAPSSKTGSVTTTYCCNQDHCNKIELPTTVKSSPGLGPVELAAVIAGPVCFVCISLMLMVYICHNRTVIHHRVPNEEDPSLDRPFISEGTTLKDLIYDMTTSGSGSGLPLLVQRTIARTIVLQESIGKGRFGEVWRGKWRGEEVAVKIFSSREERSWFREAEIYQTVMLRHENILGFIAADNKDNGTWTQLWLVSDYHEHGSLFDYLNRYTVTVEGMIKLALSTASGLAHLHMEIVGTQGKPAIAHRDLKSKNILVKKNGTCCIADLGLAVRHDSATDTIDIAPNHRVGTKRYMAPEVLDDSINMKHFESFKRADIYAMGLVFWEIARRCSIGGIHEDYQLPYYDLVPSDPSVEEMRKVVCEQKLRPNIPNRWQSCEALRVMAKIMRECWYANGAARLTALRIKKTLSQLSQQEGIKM
In short: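 Enzyme preincubated with compound for 60 min at room temperature, then reacted with ATP (125 μM as 5× stock) for 60 min at 37 °C. Stopped with EDTA plus Eu-anti-phospho-Topoisomerase 2-alpha (Thr1342) antibody and read by TR-FRET at 665 nm. pIC50 from a 4-parameter fit, converted to pKi by Cheng-Prusoff.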

SMILES | IC50 [1] | Ki [2]
Cc1cccc(-c2nccc(Nc3ccnc(Nc4ccc(NCC5CNC5)cc4)n3)n2)n1 [Compound 537, N2-(4-((azetidin-3-ylmethyl)amino)phenyl)-N4-(2-(6-methylpyridin-2-yl)pyrimidin-4-yl)pyrimidine-2,4-diamine] | 25.1 to 158 nM | 0.0398 to 0.316 nM
Cc1cccc(-c2nccc(Nc3ccnc(Nc4ccc(-c5cnn(C6COC6)c5)cc4)n3)n2)n1 [Compound 538, N4-(2-(6-methylpyridin-2-yl)pyrimidin-4-yl)-N2-(4-(1-(oxetan-3-yl)-1H-pyrazol-4-yl)phenyl)pyrimidine-2,4-diamine] | 25.1 to 158 nM | 0.0398 to 0.316 nM
Cc1cccc(-c2nccc(Nc3ccnc(Nc4ccc(C5CNCCN5)cc4)n3)n2)n1 (stereo not shown) [Compound 539, N4-[2-(6-methyl-2-pyridyl)pyrimidin-4-yl]-N2-(4-piperazin-2-ylphenyl)pyrimidine-2,4-diamine] | 25.1 to 158 nM | ≤ 0.0316 nM
Fc1cc(F)c(-c2ncc(C3CC3)c(Nc3ccnc(Nc4ccc(N5CCNCC5)cc4)n3)n2)cc1Cl [Compound 540, N4-[2-(5-chloro-2,4-difluoro-phenyl)-5-cyclopropyl-pyrimidin-4-yl]-N2-(4-piperazin-1-ylphenyl)pyrimidine-2,4-diamine] | 1580 to 10000 nM | 0.0398 to 0.316 nM
Cc1cccc(-c2nccc(Nc3ccnc(Nc4ccc(S(=O)(=O)N5CCN(CCO)CC5)cc4)n3)n2)n1 [Compound 541, 2-[4-[4-[[4-[[2-(6-methyl-2-pyridyl)pyrimidin-4-yl]amino]pyrimidin-2-yl]amino]phenyl]sulfonylpiperazin-1-yl]ethanol] | 25.1 to 158 nM | 0.0398 to 0.316 nM
Cc1nc(-c2nccc(Nc3ccnc(Nc4ccc(N5CCC(N6CCN(C)CC6)CC5)cc4)n3)n2)ccc1F [Compound 542, N4-[2-(5-fluoro-6-methyl-2-pyridyl)pyrimidin-4-yl]-N2-[4-[4-(4-methylpiperazin-1-yl)-1-piperidyl]phenyl]pyrimidine-2,4-diamine] | 25.1 to 158 nM | 0.0398 to 0.316 nM
Cc1cccc(-c2nccc(Nc3ccnc(Nc4csc(C(=O)O[C@@H]5CCNC5)c4)n3)n2)n1 [Compound 543, [(3R)-pyrrolidin-3-yl] 4-[[4-[[2-(6-methyl-2-pyridyl)pyrimidin-4-yl]amino]pyrimidin-2-yl]amino]thiophene-2-carboxylate] | 25.1 to 158 nM | 0.0398 to 0.316 nM
Cc1cccc(-c2nccc(Nc3ccnc(Nc4csc(C(=O)O[C@H]5CCNC5)c4)n3)n2)n1 [Compound 544, [(3S)-pyrrolidin-3-yl] 4-[[4-[[2-(6-methyl-2-pyridyl)pyrimidin-4-yl]amino]pyrimidin-2-yl]amino]thiophene-2-carboxylate] | 25.1 to 158 nM | 0.0398 to 0.316 nM
Cc1cccc(-c2nccc(Nc3ccnc(Nc4ccc(C(=O)OCC5CNC5)nc4)n3)n2)n1 [Compound 545, azetidin-3-ylmethyl 5-((4-((2-(6-methylpyridin-2-yl)pyrimidin-4-yl)amino)pyrimidin-2-yl)amino)picolinate] | 25.1 to 158 nM | 0.0398 to 0.316 nM
Cc1cccc(-c2nccc(Nc3ccnc(Nc4ccc(C(=O)O[C@@H]5CCNC5)nc4)n3)n2)n1 [Compound 546, [(3R)-pyrrolidin-3-yl] 5-[[4-[[2-(6-methyl-2-pyridyl)pyrimidin-4-yl]amino]pyrimidin-2-yl]amino]pyridine-2-carboxylate] | 25.1 to 158 nM | 0.0398 to 0.316 nM
Cc1cccc(-c2nccc(Nc3ccnc(Nc4ccc(C(=O)O[C@H]5CCNC5)nc4)n3)n2)n1 [Compound 547, [(3S)-pyrrolidin-3-yl] 5-[[4-[[2-(6-methyl-2-pyridyl)pyrimidin-4-yl]amino]pyrimidin-2-yl]amino]pyridine-2-carboxylate] | 25.1 to 158 nM | 0.0398 to 0.316 nM
Cc1cccc(-c2nccc(Nc3ccnc(Nc4cncc(C(=O)OCC5CNC5)c4)n3)n2)n1 [Compound 548, azetidin-3-ylmethyl 5-[[4-[[2-(6-methyl-2-pyridyl)pyrimidin-4-yl]amino]pyrimidin-2-yl]amino]pyridine-3-carboxylate] | 25.1 to 158 nM | 0.398 to 3.16 nM
Cc1cccc(-c2nccc(Nc3ccnc(Nc4cncc(C(=O)O[C@@H]5CCNC5)c4)n3)n2)n1 [Compound 549, (R)-pyrrolidin-3-yl 5-((4-((2-(6-methylpyridin-2-yl)pyrimidin-4-yl)amino)pyrimidin-2-yl)amino)nicotinate] | 25.1 to 158 nM | 0.398 to 3.16 nM
Cc1cccc(-c2nccc(Nc3ccnc(Nc4cncc(C(=O)O[C@H]5CCNC5)c4)n3)n2)n1 [Compound 550, [(3S)-pyrrolidin-3-yl] 5-[[4-[[2-(6-methyl-2-pyridyl)pyrimidin-4-yl]amino]pyrimidin-2-yl]amino]pyridine-3-carboxylate] | 25.1 to 158 nM | 0.398 to 3.16 nM
Cc1cccc(-c2nccc(Nc3ccnc(Nc4nc(C(=O)OCCN5CCNCC5)cs4)n3)n2)n1 [Compound 551, 2-piperazin-1-ylethyl 2-[[4-[[2-(6-methyl-2-pyridyl)pyrimidin-4-yl]amino]pyrimidin-2-yl]amino]thiazole-4-carboxylate] | 200 to 1260 nM | 0.398 to 3.16 nM
Cc1cccc(-c2nccc(Nc3ccnc(Nc4ccc(C(=O)OCCN5CCNCC5)nc4)n3)n2)n1 [Compound 552, 2-piperazin-1-ylethyl 5-[[4-[[2-(6-methyl-2-pyridyl)pyrimidin-4-yl]amino]pyrimidin-2-yl]amino]pyridine-2-carboxylate] | 25.1 to 158 nM | 0.0398 to 0.316 nM
Cc1cccc(-c2nccc(Nc3ccnc(Nc4cccc(C(=O)OCCN5CCNCC5)c4)n3)n2)n1 [Compound 553, 2-piperazin-1-ylethyl 3-[[4-[[2-(6-methyl-2-pyridyl)pyrimidin-4-yl]amino]pyrimidin-2-yl]amino]benzoate] | 25.1 to 158 nM | 0.398 to 3.16 nM
Cc1cccc(-c2nccc(Nc3ccnc(Nc4csc(C(=O)OCCN5CCNCC5)c4)n3)n2)n1 [Compound 554, 2-piperazin-1-ylethyl 4-[[4-[[2-(6-methyl-2-pyridyl)pyrimidin-4-yl]amino]pyrimidin-2-yl]amino]thiophene-2-carboxylate] | 25.1 to 158 nM | 0.0398 to 0.316 nM
Fc1cc(F)c(-c2nccc(Nc3ccnc(Nc4ccc(N5CCNCC5)cc4)n3)n2)cc1Cl [Compound 556, N4-(2-(5-chloro-2,4-difluorophenyl)pyrimidin-4-yl)-N2-(4-(piperazin-1-yl)phenyl)pyrimidine-2,4-diamine] | 25.1 to 158 nM | 0.0398 to 0.316 nM
Cc1cccc(-c2nccc(Nc3ccnc(Nc4ccc(C(=O)OCC56CNCC5C6)nc4)n3)n2)n1 (stereo not shown) [Compound 557, 3-azabicyclo[3.1.0]hexan-1-ylmethyl 5-[[4-[[2-(6-methyl-2-pyridyl)pyrimidin-4-yl]amino]pyrimidin-2-yl]amino]pyridine-2-carboxylate] | 200 to 1260 nM | 0.0398 to 0.316 nM
Cc1cccc(-c2nccc(Nc3ccnc(Nc4ccc(C(=O)OCCC5CCNCC5)nc4)n3)n2)n1 [Compound 558, 2-(4-piperidyl)ethyl 5-[[4-[[2-(6-methyl-2-pyridyl)pyrimidin-4-yl]amino]pyrimidin-2-yl]amino]pyridine-2-carboxylate] | 25.1 to 158 nM | 0.0398 to 0.316 nM
Cc1cccc(-c2nccc(Nc3ccnc(Nc4csc(C(=O)OCCNC5CNC5)c4)n3)n2)n1 [Compound 560, 2-(azetidin-3-ylamino)ethyl 4-[[4-[[2-(6-methyl-2-pyridyl)pyrimidin-4-yl]amino]pyrimidin-2-yl]amino]thiophene-2-carboxylate] | 25.1 to 158 nM | 0.0398 to 0.316 nM
Cc1cccc(-c2nccc(Nc3ccnc(Nc4ccc(C(=O)OC5CCNCC5)nc4)n3)n2)n1 [Compound 561, 4-piperidyl 5-[[4-[[2-(6-methyl-2-pyridyl)pyrimidin-4-yl]amino]pyrimidin-2-yl]amino]pyridine-2-carboxylate] | 25.1 to 158 nM | 0.0398 to 0.316 nM
Cc1cccc(-c2nccc(Nc3ccnc(Nc4ccc(C(=O)O[C@H](C)C5CCNCC5)nc4)n3)n2)n1 [Compound 562, [(1R)-1-(4-piperidyl)ethyl] 5-[[4-[[2-(6-methyl-2-pyridyl)pyrimidin-4-yl]amino]pyrimidin-2-yl]amino]pyridine-2-carboxylate] | 200 to 1260 nM | 0.0398 to 0.316 nM
Cc1cccc(-c2nccc(Nc3ccnc(Nc4csc(C(=O)OC[C@H]5CC[C@@H](N)CC5)c4)n3)n2)n1 [Compound 563, (4-aminocyclohexyl)methyl 4-[[4-[[2-(6-methyl-2-pyridyl)pyrimidin-4-yl]amino]pyrimidin-2-yl]amino]thiophene-2-carboxylate] | 200 to 1260 nM | 0.0398 to 0.316 nM
Cc1cccc(-c2nccc(Nc3ccnc(Nc4ccc(C(=O)OCC5CNC5)cn4)n3)n2)n1 [Compound 564, azetidin-3-ylmethyl 6-[[4-[[2-(6-methyl-2-pyridyl)pyrimidin-4-yl]amino]pyrimidin-2-yl]amino]pyridine-3-carboxylate] | 200 to 1260 nM | 3.98 to 31.6 nM

From patent publication US20230399312A1, “SUBSTITUTED PYRIMIDINES AND METHODS OF USE” (THERAVANCE BIOPHARMA R&D IP, LLC, priority 2020, published 2023)
